# Measured values reported in PMC3083445, “Mastering the Canonical Loop of Serine Protease Inhibitors: Enhancing Potency by Optimising the Internal Hydrogen Bond Network” (PLoS ONE, 2011).
# Read-outs that look alike come from different tables or passages of the source. Where a SMILES comes first, the peptide text is derived from it. Bridges are numbered along the chain shown (N, C = ends).
# How the values were obtained:
# KLK4 [1] = target: T1, KLK4 (Homo sapiens, UniProt Q9Y5K2); assay: biochemical
# T1 sequence (Q9Y5K2 31-254): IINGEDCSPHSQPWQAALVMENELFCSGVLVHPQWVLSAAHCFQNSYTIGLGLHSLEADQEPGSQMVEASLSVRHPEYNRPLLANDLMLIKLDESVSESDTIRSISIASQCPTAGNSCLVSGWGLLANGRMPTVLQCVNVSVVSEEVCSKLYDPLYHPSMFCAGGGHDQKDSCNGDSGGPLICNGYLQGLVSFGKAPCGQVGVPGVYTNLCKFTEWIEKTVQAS
# Method: (§3) Increasing concentrations of inhibitors were incubated with various concentration of protease (final concentrations: KLK4, 1.5 nM; KLK12, 15 nM; KLK14, 2 nM; trypsin, 1 nM; matriptase, 4 nM; thrombin, 25 nM; α-chymotrypsin 25 nM) for 20 min in 200 µl assay buffer (100 mM Tris-HCl, 100 mM NaCl2, 0.005% triton-X, pH 8.0). Assays with thrombin and trypsin included 10 mM CaCl2. Enzyme activity was initiated by addition of substrate in 100 µl assay buffer (final concentration 100 µM; see Table 2). The rate of hydrolysis was measured at 405 nm over 7 min and was linear over this period. […] For SFTI-FCQR Asp14, K i was determined by inhibition at various substrate concentrations using the competitive inhibition model and non-linear regression in Prism 5 (GraphPad Software Inc). The K i for this inhibitor was also determined using the Morrison equation for tight binding inhibitors [43] (FVQR-pNA K M = 679.9±113.1 µM [16]) and non-linear regression in Prism 5. […] The k on and k off were determined from the lag phases and steady state of inhibition as previously described [44] using assay conditions as above and 500 µM substrate.
# trypsin = target: T2, trypsin (Bos taurus, UniProt P00760); assay: Inhibition of fibrinogen proteolysis by trypsin (SDS-PAGE); assay type: biochemical, bovine; conditions: up to 10,000 nM inhibitor; 7 µM fibrinogen, 15 min
# T2 construct: Bovine β-trypsin, bovine α-chymotrypsin and human thrombin were obtained from Sigma; purchased Sigma
# T2 sequence (P00760 24-246): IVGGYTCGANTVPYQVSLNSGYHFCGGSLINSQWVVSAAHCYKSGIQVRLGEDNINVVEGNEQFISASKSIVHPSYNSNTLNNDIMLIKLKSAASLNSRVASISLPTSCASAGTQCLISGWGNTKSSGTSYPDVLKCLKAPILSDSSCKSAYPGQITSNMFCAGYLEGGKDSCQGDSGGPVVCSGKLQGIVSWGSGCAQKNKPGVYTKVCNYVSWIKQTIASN
# Method: (§1) Assays with thrombin and trypsin included 10 mM CaCl2. […] Proteolysis fragments were separated on 10% polyacrylamide gels.
# KLK14 [2] = target: T3, KLK14 (Homo sapiens, UniProt Q9P0G3); assay: Amidolytic inhibition assay of KLK14 with pNA substrate; assay type: biochemical
# T3 construct: polyhistidine (C); made in house; host or cells: Sf9 insect cells
# T3 sequence (Q9P0G3 25-251): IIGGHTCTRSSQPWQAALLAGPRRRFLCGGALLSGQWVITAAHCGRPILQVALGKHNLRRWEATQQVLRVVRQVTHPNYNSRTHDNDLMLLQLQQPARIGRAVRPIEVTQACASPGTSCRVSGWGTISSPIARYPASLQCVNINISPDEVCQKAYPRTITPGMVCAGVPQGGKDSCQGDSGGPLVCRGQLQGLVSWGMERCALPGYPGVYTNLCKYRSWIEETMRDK
# Method: as §1
# β-Trypsin = target: T4, β-Trypsin (Bos taurus, UniProt P00760); assay: Amidolytic inhibition assay of β-trypsin; assay type: biochemical, bovine
# T4 construct: Bovine β-trypsin, bovine α-chymotrypsin and human thrombin were obtained from Sigma; purchased Sigma
# T4 sequence (P00760 24-246): T2 sequence (P00760 24-246)
# Method: as §1
# [3] = Bioavailability / serum levels in mice by LC-MS; assay type: in vivo; conditions: 3 mg/kg
# Method: Stability and bioavailability of SFTI-FCQR Asn14 in vivo was assessed in BALB/cFoxn1/Arc mice by oral, intravenous and intraperitoneal delivery (3 mg/kg). Inhibitor was dissolved in PBS at a concentration of 0.6 mg/ml prior to dosing. Serum levels of SFTI-FCQR Asn14 were subsequently measured by Liquid Chromatography-Mass Spectrometry (LC-MS) at Tetra Q laboratories (University of Queensland, Brisbane, Australia). This study was carried out in strict accordance to the recommendations of the Australian Code of Practice for the Care and Use of Animals for Scientific purposes (7th edition 2004) and the protocol was approved by the University of Queensland Animal Ethics Committee (ABS group) which assigned the project approval code TetraQ/479/09/Bluebox. All efforts were made to minimize suffering by experimental animals.
# KLK12 = target: T5, KLK12 (Homo sapiens, UniProt Q9UKR0); assay: Inhibition of fibrinogen proteolysis by KLK12 (SDS-PAGE); assay type: biochemical; conditions: up to 10,000 nM inhibitor; 7 µM fibrinogen, 180 min
# T5 construct: purchased R&D Systems
# T5 sequence (Q9UKR0 18-248): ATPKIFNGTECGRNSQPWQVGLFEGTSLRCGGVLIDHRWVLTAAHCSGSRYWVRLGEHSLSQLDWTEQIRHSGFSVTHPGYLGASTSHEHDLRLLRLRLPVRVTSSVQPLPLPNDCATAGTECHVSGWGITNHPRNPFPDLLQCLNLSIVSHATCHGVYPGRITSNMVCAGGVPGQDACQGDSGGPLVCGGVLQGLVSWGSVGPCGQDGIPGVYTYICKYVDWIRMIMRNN
# Method: as §1
# KLK4 [4] = target: T1, KLK4; assay: Inhibition of fibrinogen proteolysis by KLK4 (SDS-PAGE); assay type: biochemical; design: polyhistidine (C); made in house; host or cells: Sf9 insect cells; conditions: 7 µM fibrinogen, 90 min
# Method: as §1
# [5] = Stability of SFTI variants in culture with prostate cancer cells; assay type: in vitro ADME; conditions: human; 1 µM inhibitor in serum-containing media on LNCaP, 22Rv1 and PC3 monolayers; residual KLK4 inhibition; read-out: half-life in cell culture
# Method: (§2) The half-life in cell culture for SFTI-FCQR Asn14 and SFTI-FCQR Lys14 was determined using previously described methods. Briefly, monolayers of LNCaP, 22Rv1 and PC3 cells were established in RPMI 1640 medium supplemented with 10% foetal calf serum (HyClone), 100 U/ml penicillin (Invitrogen) and 100 µg/ml streptomycin (Invitrogen). Cells were treated ±1 µM inhibitor (SFTI-FCQR Asn14 or SFTI-FCQR Lys14) in fresh serum-containing media. Samples of media were taken at 24 hr intervals and boiled at 97°C for 15 min to denature serum protein. Residual inhibition by SFTI-FCQR variants was determined in competitive kinetic assays (as above), adding a volume of media to give 10 nM SFTI-FCQR Asn14 or 25 nM SFTI-FCQR Lys14 at 0 hr. Media without inhibitor was used to adjust for any endogenous media inhibition and data represent the mean ± SEM of three triplicate experiments.
# α-chymotrypsin = target: T6, α-chymotrypsin (Bos taurus, UniProt P00766); assay: Amidolytic inhibition assay of α-chymotrypsin; assay type: biochemical, bovine
# T6 construct: Bovine β-trypsin, bovine α-chymotrypsin and human thrombin were obtained from Sigma; purchased Sigma
# Method: as §1
# Thrombin [6] = target: T7, Thrombin (Homo sapiens, UniProt P00734); assay: Amidolytic inhibition assay of thrombin; assay type: biochemical
# T7 construct: Bovine β-trypsin, bovine α-chymotrypsin and human thrombin were obtained from Sigma; purchased Sigma
# Method: as §1
# KLK14 [7] = target: T3, KLK14; assay: Inhibition of fibrinogen proteolysis by KLK14 (SDS-PAGE); assay type: biochemical; conditions: up to 10,000 nM inhibitor; 7 µM fibrinogen, 90 min
# Method: as §1
# Matriptase = target: T8, Matriptase (Homo sapiens, UniProt Q9Y5Y6); assay: Amidolytic inhibition assay of matriptase; assay type: biochemical
# T8 construct: purchased R&D Systems
# T8 sequence (Q9Y5Y6 615-855 limits assumed): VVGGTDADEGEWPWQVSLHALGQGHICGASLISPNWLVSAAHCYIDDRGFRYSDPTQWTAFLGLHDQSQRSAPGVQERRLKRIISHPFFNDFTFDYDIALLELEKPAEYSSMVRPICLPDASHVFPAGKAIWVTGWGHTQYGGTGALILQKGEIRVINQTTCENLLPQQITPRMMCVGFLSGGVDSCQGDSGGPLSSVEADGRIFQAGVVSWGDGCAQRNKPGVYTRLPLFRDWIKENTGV
# Method: as §1
# KLK4 [8] = target: T1, KLK4
# Method: as §3
# [9] = test system: LNCaP, 22Rv1 and PC3 cells; design: method as in PMID 19549601; conditions: cited from earlier work
# [10] = test system: LNCaP, 22Rv1 and PC3 cells; assay: Stability of SFTI variants in culture with prostate cancer cells; assay type: in vitro ADME; conditions: 1 µM inhibitor in serum-containing media on prostate cancer cells; residual KLK4 inhibition
# Method: as §2
# KLK4 [11] = target: T1, KLK4; assay: in vitro; conditions: recombinant KLK4 (isolated protease), pH 8
# Method: as §3
# Thrombin [12] = target: T7, Thrombin; design: method as in PMID 11549459; conditions: substrate N-t-Boc-LRR-AMC; cited from earlier work
# [13] = relative to SFTI-FCQR Asp14 (Table 2)
compound,measurement,setting,value
CC[C@H](C)[C@@H]1NC(=O)[C@@H]2CCCN2C(=O)[C@@H]2CCCN2C(=O)[C@H]([C@@H](C)CC)NC(=O)[C@H](CO)NC(=O)[C@H](CCCNC(=N)N)NC(=O)[C@H](CCC(N)=O)NC(=O)[C@@H]2CSSC[C@H](NC1=O)C(=O)N[C@@H](Cc1ccccc1)C(=O)N1CCC[C@H]1C(=O)N[C@@H](C)C(=O)NCC(=O)N[C@@H](Cc1ccccc1)C(=O)N2 [SFTI-FCQR Ala14] (cyclo(GFCQRSIPPICFPA); disulfide 3-11),IC50,KLK4 [1],26.2 ± 0.85 nM
same,Ki,KLK4 [1],18.3 ± 3.36 nM
CC[C@H](C)[C@@H]1NC(=O)[C@@H]2CCCN2C(=O)[C@@H]2CCCN2C(=O)[C@H]([C@@H](C)CC)NC(=O)[C@H](CO)NC(=O)[C@H](CCCNC(=N)N)NC(=O)[C@H](CCC(N)=O)NC(=O)[C@@H]2CSSC[C@H](NC1=O)C(=O)N[C@@H](Cc1ccccc1)C(=O)N1CCC[C@H]1C(=O)N[C@@H](CC(N)=O)C(=O)NCC(=O)N[C@@H](Cc1ccccc1)C(=O)N2 [SFTI-FCQR Asn14] (cyclo(GFCQRSIPPICFPN); disulfide 3-11),inhibition of trypsin fibrinogen proteolysis,trypsin,No inhibition
same,Ki,KLK4 [1],0.0386 ± 0.006 nM
same,relative increase in KLK14 inhibition compared to SFTI-FCQR Asp14,KLK14 [2]; [13],six-fold
same,IC50,"KLK14 [2]; substrate Ac-GSLR-pNA 100 µM, KLK14 2 nM",251 ± 21.9 nM
same,relative increase in trypsin inhibition compared to SFTI-FCQR Asp14,β-Trypsin; [13],two-fold
same,IC50,"β-Trypsin; substrate BAPNA 100 µM, trypsin 1 nM, 10 mM CaCl2",2180 ± 145 nM
same,half-life,"[3]; BALB/cFoxn1/Arc, mouse, serum, IV and IP",25 to 28 min
same,level at time molar at 4 h,"[3]; BALB/cFoxn1/Arc, mouse, serum, IV and IP, irrespective of delivery route, read-out: residual inhibitor concentration in serum after 4 hours",10 ± 0.8 nM
same,serum levels after oral delivery,"[3]; oral, LC-MS",did not result in detectable levels of inhibitor in serum
same,inhibition of KLK12 fibrinogen proteolysis,KLK12,No inhibition
same,lowest inhibitor concentration blocking KLK4 proteolysis of fibrinogen,KLK4 [4],62.5 nM
same,half-life at 1 µM,[5],55 to 70 h
same,inhibition of α-chymotrypsin,"α-chymotrypsin; at 10,000 nM inhibitor",no inhibition
same,IC50,"α-chymotrypsin; substrate WpNA 100 µM, α-chymotrypsin 25 nM",> 10000 nM
same,inhibition of thrombin,"Thrombin [6]; at 10,000 nM inhibitor",no inhibition
same,IC50,"Thrombin [6]; substrate Bz-FVRpNA 100 µM, thrombin 25 nM, 10 mM CaCl2",> 10000 nM
same,inhibition of KLK14 fibrinogen proteolysis,KLK14 [7],No inhibition
same,inhibition of matriptase,"Matriptase; at 10,000 nM inhibitor",no inhibition
same,IC50,"Matriptase; substrate Bz-FVRpNA 100 µM, matriptase 4 nM",> 10000 nM
same,calculated second order rate constant (k off/K i),KLK4 [8]; calculated from k off and K i,8.03e+08 M⁻¹ s⁻¹
same,fold improvement in KLK4 inhibition compared to SFTI-FCQR Asp14,KLK4 [8]; [13],125 fold
same,IC50,"KLK4 [8]; substrate FVQRpNA 100 µM, KLK4 1.5 nM, 20 min preincubation (SFTI-FCQR Asn14: 0.15 nM KLK4 over 2 hr; Lys14 assayed immediately after addition)",0.0635 ± 0.0024 nM
CC[C@H](C)[C@@H]1NC(=O)[C@@H]2CCCN2C(=O)[C@@H]2CCCN2C(=O)[C@H]([C@@H](C)CC)NC(=O)[C@H](CO)NC(=O)[C@H](CCCNC(=N)N)NC(=O)[C@H](CCC(N)=O)NC(=O)[C@@H]2CSSC[C@H](NC1=O)C(=O)N[C@@H](Cc1ccccc1)C(=O)N1CCC[C@H]1C(=O)N[C@@H](CC(=O)O)C(=O)NCC(=O)N[C@@H](Cc1ccccc1)C(=O)N2 [SFTI-FCQR Asp14] (cyclo(GFCQRSIPPICFPD); disulfide 3-11),Ki,KLK4 [1],3.89 ± 0.4 nM
same,lowest inhibitor concentration blocking KLK4 proteolysis of fibrinogen,KLK4 [4],250 nM
same,stability in culture with prostate cancer cells,[9],highly resistant to breakdown
same,Ki,"KLK4 [8]; competitive inhibition model, various substrate concentrations, FVQRpNA",3.62 ± 0.26 nM
CC[C@H](C)[C@@H]1NC(=O)[C@@H]2CCCN2C(=O)[C@@H]2CCCN2C(=O)[C@H]([C@@H](C)CC)NC(=O)[C@H](CO)NC(=O)[C@H](CCCNC(=N)N)NC(=O)[C@H](CCC(N)=O)NC(=O)[C@@H]2CSSC[C@H](NC1=O)C(=O)N[C@@H](Cc1ccccc1)C(=O)N1CCC[C@H]1C(=O)NCC(=O)NCC(=O)N[C@@H](Cc1ccccc1)C(=O)N2 [SFTI-FCQR Gly14] (cyclo(GFCQRSIPPICFPG); disulfide 3-11),IC50,KLK4 [1],14.7 ± 1.09 nM
same,Ki,KLK4 [1],10.4 ± 2.87 nM
CC[C@H](C)[C@@H]1NC(=O)[C@@H]2CCCN2C(=O)[C@@H]2CCCN2C(=O)[C@H]([C@@H](C)CC)NC(=O)[C@H](CO)NC(=O)[C@H](CCCNC(=N)N)NC(=O)[C@H](CCC(N)=O)NC(=O)[C@@H]2CSSC[C@H](NC1=O)C(=O)N[C@@H](Cc1ccccc1)C(=O)N1CCC[C@H]1C(=O)N[C@@H](CCCCN)C(=O)NCC(=O)N[C@@H](Cc1ccccc1)C(=O)N2 [SFTI-FCQR Lys14] (cyclo(GFCQRSIPPICFPK); disulfide 3-11),IC50,KLK4 [1],6.07 ± 0.13 nM
same,Ki,KLK4 [1],3.56 ± 0.27 nM
same,initial activity lost within the first 24 hr in cell culture,[10],two-thirds
same,half-life,KLK4 [11],56.3 ± 6.2 min
CC[C@H](C)[C@@H]1NC(=O)[C@@H]2CCCN2C(=O)[C@@H]2CCCN2C(=O)[C@H]([C@@H](C)CC)NC(=O)[C@H](CO)NC(=O)[C@H](CCCNC(=N)N)NC(=O)[C@H](CCC(N)=O)NC(=O)[C@@H]2CSSC[C@H](NC1=O)C(=O)N[C@@H](Cc1ccccc1)C(=O)N1CCC[C@H]1C(=O)N[C@@H](CO)C(=O)NCC(=O)N[C@@H](Cc1ccccc1)C(=O)N2 [SFTI-FCQR Ser14] (cyclo(GFCQRSIPPICFPS); disulfide 3-11),IC50,KLK4 [1],29.2 ± 1.08 nM
same,Ki,KLK4 [1],21.2 ± 3.81 nM
SFTI-1: 1.4 kDa cyclic Bowman-Birk serine protease inhibitor isolated from sunflower (Helianthus annuus) seeds,Ki,Thrombin [12],5050 nM
